Results reported in publication PMC3979932 (Xenobiotica; the fate of foreign compounds in biological …, 2013).
Read-outs that look alike come from different tables or passages of the source.

Assays:
[1] = target: T1, CYP2E1 (Homo sapiens, UniProt P05181); details: human, recombinant enzyme, pH 7.4
[2] = target: T2, human CYP2E1 (Supersomes) (Homo sapiens, UniProt P05181)
[3] = target: T1, CYP2E1; details: human, microsomes, pH 7.4
[4] = target: T3, CYP2E1 in human liver microsomes (HLM150) (Homo sapiens, UniProt P05181)
T3 sequence (P05181 whole entry): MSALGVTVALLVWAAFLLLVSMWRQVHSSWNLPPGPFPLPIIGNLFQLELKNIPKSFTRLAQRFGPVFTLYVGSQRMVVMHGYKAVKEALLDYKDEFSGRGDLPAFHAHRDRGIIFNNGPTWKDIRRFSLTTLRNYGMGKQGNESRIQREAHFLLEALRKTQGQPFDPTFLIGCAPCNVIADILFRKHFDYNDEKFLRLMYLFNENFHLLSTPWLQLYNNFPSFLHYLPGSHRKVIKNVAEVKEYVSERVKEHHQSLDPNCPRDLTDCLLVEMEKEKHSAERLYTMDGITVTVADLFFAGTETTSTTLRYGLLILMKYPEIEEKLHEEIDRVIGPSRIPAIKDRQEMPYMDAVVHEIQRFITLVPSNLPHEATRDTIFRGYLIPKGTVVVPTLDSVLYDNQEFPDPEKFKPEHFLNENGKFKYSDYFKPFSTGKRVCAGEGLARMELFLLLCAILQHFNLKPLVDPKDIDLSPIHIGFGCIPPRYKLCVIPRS

[5] = target: T1, CYP2E1; assay: Steady-state inhibition kinetics of 4-nitrophenol oxidation, CYP2E1 Supersomes; details: for Ki: Ki,ap, apparent, catalytic site, 95% CI in parentheses; for Mechanism: most probable inhibition mechanism among 10 models
[6] = target: T4, CYP2E1 activity with HLM150 (Homo sapiens, UniProt P05181); assay: Steady-state inhibition kinetics of 4-nitrophenol oxidation, HLM150
T4 sequence (P05181 whole entry): as above

[7] = tested on: CYP2E1; details: CYP2E1 Supersomes; ref Hartman et al., 2012; cited from earlier work
[8] = target: T1, CYP2E1
[9] = target: T1, CYP2E1; assay: in vitro; details: microsomes, pH 7.4
[10] = target: T1, CYP2E1; assay: in vitro; details: recombinant enzyme, pH 7.4
[11] = target: T3, CYP2E1 in human liver microsomes (HLM150); details: pH 7.4
[12] = target: T2, human CYP2E1 (Supersomes); details: recombinant enzyme, pH 7.4
[13] = target: T4, CYP2E1 activity with HLM150

T1 sequence (P05181 whole entry): as above
T2 sequence (P05181 whole entry): as above

Structure (SMILES)	activity at 30 min [1] [%]	IC50 [2] [µM]	activity at 30 min [3] [%]	IC50 [4] [µM]	Ki [5] [µM]	Mechanism [5]	Ki [6] [µM]	Ks (high affinity apparent binding constant during styrene metabolism) [7] [µM]	Ki ([6]; Ki,ap, HLM150, apparent, catalytic site, 95% CI in parentheses) [µM]	Ki ([6]; Ksi,ap, HLM150, apparent, cooperative site, 95% CI in parentheses) [µM]	Mechanism [8]	activity at 30 min [9] [%]	IC50 at 30 min [10] [µM]	activity at 30 min [10] [%]	Ki,ap ([8]; recombinant enzyme)	IC50 [11]	IC50 [12]	Ki,ap [13]	Mechanism [13]
c1ccc(C2CO2)cc1 (stereo not shown) [Styrene oxide, 8,9-styrene oxide]	13	55	28	150	110	Mixed cooperative substrate	160												
C=Cc1ccccc1 [Styrene, styrene]	11	75	20	45	67	Mixed cooperative substrate		110	18	58									
C=Cc1ccc(O)cc1 [4-Vinylphenol, 4-vinylphenol]				38	47		61				Mixed cooperative substrate	19	24	16					
OCC(O)c1ccccc1 (racemic) [R/S-Styrene glycol, (R/S)-1,2-phenylethanediol]											Competitive	18		9.2	29 000 (19 000–52 000) μM	14 000 (6600–21 000) μM	13 000 (2800–23 000) μM	17 000 (15 000–19 000) μM	Competitive
